Measured values: patent US20260240832A1, “USE OF NITROXOLINE COMPOUND IN ENHANCING EFFECT OF ANTIBACTERIAL AGENT” (Jiangsu Yahong Meditech Co., Ltd., priority 2022, published 2026)
Read-outs that look alike come from different tables or passages of the source.

What was measured:
Assay type in all cases: cell-based
[1] = system: drug-resistant Escherichia coli 1864; test: MIC of antibiotics against drug-resistant Escherichia coli II (resistance profile of the strain); settings: drug-resistant Escherichia coli 1864; read-out: MIC
From the text: (§1) 1 strain of drug-resistant Escherichia coli II, namely drug-resistant Escherichia coli 1864, is provided by the School of Pharmacy of Fudan University. This strain is resistant to fluoroquinolone antibiotics (such as levofloxacin), non-fluoroquinolone antibiotics (such as nalidixic acid, nemofloxacin), aminoglycoside antibiotics (such as gentamicin), glycopeptide antibiotics (such as vancomycin) and carbapenem antibiotics (such as meropenem).

[2] = system: carbapenem-resistant Acinetobacter baumannii; test: Chessboard microbroth dilution MIC/FIC, compound A in combination with meropenem; settings: for MIC: Acinetobacter baumannii, read-out: Meropenem MIC alone; for Meropenem MIC in combination: with compound A
From the text: This experiment is designed to determine the minimum inhibitory concentration (MIC) of compound A in combination with meropenem against carbapenem-resistant Acinetobacter baumannii and to calculate the fractional inhibitory concentration (FIC) index.
Test bacteria: 10 strains of carbapenem-resistant Acinetobacter baumannii are clinically isolated strains, and are provided by Shanghai Junji Medical Laboratory Co., Ltd.
(§2) According to the recommendation of the Clinical and Laboratory Standards Institute (CLSI), the microbroth dilution method designed by the chessboard method was used to determine the minimum inhibitory concentration (MIC) of compound A in combination with meropenem against the above strains, and the fractional inhibitory concentration (FIC) index was calculated.
Compound A was dissolved in dimethyl sulfoxide to obtain a stock solution I with a concentration of 51200 mg/L. The stock solution I was subjected to 1:1 gradient dilution with dimethyl sulfoxide to obtain a dilution solution with a concentration range of 51200 to 25 mg/L. The corresponding concentrations were added to sterile water for 100-fold dilution to obtain working solution I with a concentration range of 512 to 0.25 mg/L.
Meropenem was dissolved in sterile water to obtain a stock solution with a concentration of 5120 mg/L. The […] stock solution was subjected to 1:1 gradient dilution with sterile water to obtain a working solution II with a concentration range of 512 to 0.25 mg/L.
(§3) According to the method in Example 1, a drug sensitive plate was prepared with working solution I and working solution II, and the specific process will not be repeated here.
(§4) (2) The culture medium of the bacterial solution: Cation-Adjusted Mueller-Hinton Broth (CAMHB), a product of BBL, USA, batch number 9015952.
(§5) (3) Formulation method of bacterial solution: According to the direct colony suspension method, the test bacteria cultured overnight were prepared into a 0.5 McFarland turbidity tube using physiological saline. Then, the resulting solution was dilute 100 times with the above culture medium. 100 μL of the resulting bacterial solution was mixed well with the solution (100 μL) in each well of the drug sensitivity plate, and the final inoculation amount was 10^5 CFU/mL.
(§6) (4) Culture conditions: Culturing at 35±2° C. for 20 hours in air.
(1) The experimental results were determined according to the standard of CLSI 2020 M100 30th edition.
(§7) wherein: FIC≤0.5 indicates synergistic effect; 0.5<FIC≤1.0 indicates additive effect; 1<FIC≤2.0 indicates irrelevant effect; and FIC>2 indicates antagonistic effect.

[3] = system: drug-resistant Escherichia coli II (drug-resistant Escherichia coli 1864); test: as above; settings: strain 1864
From the text: This experiment is designed to determine the minimum inhibitory concentration (MIC) of compound A in combination with meropenem against drug-resistant Escherichia coli I (a strain resistant to carbapenem antibiotics) and drug-resistant Escherichia coli II (a strain resistant to fluoroquinolone antibiotics, non-fluoroquinolone antibiotics, aminoglycoside antibiotics, glycopeptide antibiotics and carbapenem antibiotics), and to calculate the fractional inhibitory concentration (FIC) index.
as §1, §2
Compound A was dissolved in dimethyl sulfoxide to obtain a stock solution I with a concentration of 1280 mg/L. The stock solution I was diluted to 512 mg/L with sterile water to obtain a gradient dilution first tube solution I. The gradient dilution first tube solution I was subjected to 1:1 gradient dilution with sterile water to obtain a working solution I with a gradient range of 512 to 0.25 mg/L.
Meropenem was dissolved in sterile water to obtain a stock solution II with a concentration of 5120 mg/L. The stock solution II was diluted to 1024 mg/L with sterile water to obtain a gradient dilution first tube solution II. The gradient dilution first tube solution II was subjected to 1:1 gradient dilution with sterile water to obtain a working solution II with a gradient range of 1024 to 0.5 mg/L.
as §3, §4, §5, §6
(1) The experimental results were determined according to the standard of CLSI 2019 M100 29th edition.
as §7

SMILES: C[C@@H](O)[C@H]1C(=O)N2C(C(=O)O)=C(S[C@@H]3CN[C@H](C(=O)N(C)C)C3)[C@H](C)[C@H]12 [Meropenem, reference compound]
- MIC [1]: > 64 µg/mL
- MIC ([2]; strain No. 1): 128 µg/mL
- MIC ([2]; strain No. 2): 128 µg/mL
- MIC ([2]; strain No. 3): 128 µg/mL
- MIC ([2]; strain No. 4): 128 µg/mL
- MIC ([2]; strain No. 5): 128 µg/mL
- MIC ([2]; strain No. 6): 128 µg/mL
- MIC ([2]; strain No. 7): 64 µg/mL
- MIC ([2]; strain No. 8): 64 µg/mL
- MIC ([2]; strain No. 9): 64 µg/mL
- MIC ([2]; strain No. 10): 128 µg/mL
- Meropenem MIC in combination ([2]; strain No. 1): 16 µg/mL
- Meropenem MIC in combination ([2]; strain No. 2): 16 µg/mL
- Meropenem MIC in combination ([2]; strain No. 3): 16 µg/mL
- Meropenem MIC in combination ([2]; strain No. 4): 16 µg/mL
- Meropenem MIC in combination ([2]; strain No. 5): 16 µg/mL
- Meropenem MIC in combination ([2]; strain No. 6): 16 µg/mL
- Meropenem MIC in combination ([2]; strain No. 7): 16 µg/mL
- Meropenem MIC in combination ([2]; strain No. 8): 8 µg/mL
- Meropenem MIC in combination ([2]; strain No. 9): 8 µg/mL
- Meropenem MIC in combination ([2]; strain No. 10): 16 µg/mL
- MIC ([3]; Escherichia coli, read-out: Meropenem MIC alone): 128 µg/mL
- Meropenem MIC in combination ([3]; with compound A): 2 µg/mL
